One series deals with HBeAg. The series can be described thus: HBeAg, multiplex assay, HBV-infected PHH. Type of series: cell-based. To be noted: Hepatitis B virus. How it is done: Fresh primary human hepatocytes (PXB-PHH) harvested from humanized mice (uPA/SCID mice)—herein called PHH—were obtained from PhoenixBio Co., Ltd (Japan). Cells were seeded on a collagen I-coated plate at the following cell density: 35,000 cells/well (384-well), 70,000 cells/well (96-well), or, 400,000 cells/well (24-well) in modified hepatocyte clonal growth medium (dHCGM). dHCGM is a DMEM medium containing 100 U/ml Penicillin, 100 μg/ml Streptomycin, 20 mM Hopes, 44 mM NaHCO3, 15 μg/ml L-proline, 0.25 μg/ml insulin, 50 nM Dexamethazone, 5 ng/ml EGF, 0.1 mM Asc-2P, 2% DMSO and 10% FBS (Ishida et al., 2015). Cells were cultured at 37° C. incubator in a humidified atmosphere with 5% CO2. Culture medium was replaced 24 h post-plating and every 2 days until harvest.
Following 4 day of maturation with 1 μM MB-1, HLC were incubated with HBV (purified from CHB individuals) at multiplicity of infection (MOI) 10-40 without PEG for 24 hr; virus inoculum was removed the following day. […] Compound treatment in HLC and PHH was started at day 3 post infection. Compound (in powder) was dissolved in DMSO; the final concentration of DMSO added to cells is 1%. Fresh compound was replenished every 2 day until cells were harvested at day 10 (PHH), or day 14 (HLC). Compound effect on HBV and cellular toxicity was measured by multiplex assay (HBsAg, HBeAg, albumin), branched DNA (pgRNA), or digital PCR (cccDNA) and depicted as % of inhibition compared to DMSO control. Graphs were prepared using Spotfire software.
A custom, Luminex-based multiplex assay that simultaneously measured HBeAg, albumin, and HBsAg was developed by Radix BioSolutions (Georgetown, Tex.). This is a sandwich immunoassay; each capture antibody was coupled with xMAP™ Luminex magnetic beads. The dynamic ranges of analyte detection are as follows: HBeAg (1-316 ng/ml), albumin (3.1-10,000 ng/ml), and HBsAg (0.1-100 ng/ml) with coefficient variant (CV) […]. Samples were read on FlexMAP 3D (Luminex) and analyzed by Genedata software.

Series [1] deals with albumin (secreted, cellular toxicity marker). The experiment in a line: Albumin (in vitro tox), HepaRG. The format is cell-based. To be noted: human. How it is done: Following 4 day of maturation with 1 μM MB-1, HLC were incubated with HBV (purified from CHB individuals) at multiplicity of infection (MOI) 10-40 without PEG for 24 hr; virus inoculum was removed the following day. HBV infection in PHH was performed at MOI 40+4% PEG. Compound treatment in HLC and PHH was started at day 3 post infection. Compound (in powder) was dissolved in DMSO; the final concentration of DMSO added to cells is 1%. Fresh compound was replenished every 2 day until cells were harvested at day 10 (PHH), or day 14 (HLC). Compound effect on HBV and cellular toxicity was measured by multiplex assay (HBsAg, HBeAg, albumin), branched DNA (pgRNA), or digital PCR (cccDNA) and depicted as % of inhibition compared to DMSO control. Graphs were prepared using Spotfire software.
A custom, Luminex-based multiplex assay that simultaneously measured HBeAg, albumin, and HBsAg was developed by Radix BioSolutions (Georgetown, Tex.). This is a sandwich immunoassay; each capture antibody was coupled with xMAP™ Luminex magnetic beads. […] Samples were read on FlexMAP 3D (Luminex) and analyzed by Genedata software.
Most of HBV in vitro studies, including evaluation of compound antiviral activity, are performed in hepatoma cell lines (HepaRG or HepG2-NTCP) infected with cell culture-derived HBV (e.g. HepG2.2.15-derived virus, GT D). […] To address the first question, PHH (in 384-well plate) were infected with four clinical HBV isolates (GT A-D, at MOI 40). […] Most HBV in vitro studies are performed in hepatoma cell lines (e.g. HepaRG or HepG2 cell lines) utilizing HepG2-derived HBV as the virus inoculum.

Like-named read-outs stand apart in the source and are kept apart here.

Regarding `O=C(NC(CO)CO)c1c[nH]c2ncc(C3CC3)nc12` [compound 7], the IC50 in the series on HBeAg (240 h, read-out: HBeAg IC50 (μM) Median, PHH, patient-derived HBV GT A, MOI 40, day 10 pi) stood at 0.4 µM; with HBeAg (240 h, read-out: HBeAg IC50 (μM) Median, PHH, patient-derived HBV GT B, MOI 40, day 10 pi), 0.31 µM; in the series on HBeAg (240 h, read-out: HBeAg IC50 (μM) Median, PHH, patient-derived HBV GT C, MOI 40, day 10 pi) it was 0.35 µM; with HBeAg (240 h, read-out: HBeAg IC50 (μM) Median, PHH, patient-derived HBV GT D, MOI 40, day 10 pi (Table 5)) it was 0.31 µM; with HBeAg (read-out: HBeAg IC50 (μM) Median, PHH, HepG2.2.15-derived HBV GT D, MOI 40), 15.3 µM; in the series on HBeAg (read-out: HBeAg IC50 (μM) Median, PHH, HepG2.2.15-derived HBV GT D, MOI 125), 15.9 µM. In addition, the IC50 with HBeAg (read-out: HBeAg IC50 (μM) Median, PHH, patient-derived HBV (GT D)) was 0.39 µM; in the series with HBeAg (read-out: HBeAg IC50 (μM) Median, PHH, patient-derived HBV GT D, MOI 40 (Table 6)), 0.32 µM; in the series on HBeAg (read-out: HBeAg IC50 (μM) Median, PHH, patient-derived HBV GT D, MOI 125) it was 0.57 µM; in the series with HBeAg (read-out: HBeAg IC50s, PHH, patient-derived HBV GT A-D, range stated in text for HBsAg & HBeAg) it was 0.24 to 0.45 µM; in series [1] (HepG2.2.15-derived HBV GT D, MOI 40, read-out: In vitro tox albumin IC50 (μM) Median) it was 24.9 µM; in series [1] (HepG2.2.15-derived HBV GT D, MOI 125, read-out: In vitro tox albumin IC50 (μM) Median), 26.6 µM. The IC50 in series [1] (HepaRG cells infected with HBV, patient-derived HBV GT D, MOI 40, read-out: In vitro tox albumin IC50 (μM) Median) was determined as 23.4 µM; in series [1] (HepaRG cells infected with HBV, patient-derived HBV GT D, MOI 125, read-out: In vitro tox albumin IC50 (μM) Median) it was 25.7 µM.
